Results as given in ChEMBL document CHEMBL1201862, “PubChem BioAssay data set” (2004).
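Interpolation was linear, between the two tested concentrations surrounding the appropriate level; five concentrations were tested over 48 hours in 96-well plates. GI50 marks 50% less growth.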 Calls of active or inactive are those of the source. No stated cut-off is given here; in the data, active = GI50 up to about 1.1 µM and inactive = higher.

What was measured:
Test in all cases: inhibition of tumour cell growth, NCI panel, 48 h
[1] = tested on: SNB-19
[2] = tested on: SN12C
[3] = tested on: SR
[4] = tested on: UO-31
[5] = tested on: OVCAR-5
[6] = tested on: IGROV-1
[7] = tested on: NCI/ADR-RES
[8] = tested on: NCI-H460
[9] = tested on: HT-29
[10] = tested on: BT-549
[11] = tested on: CAKI-1
[12] = tested on: EKVX
[13] = tested on: NCI-H522
[14] = tested on: U-251
[15] = tested on: MOLT-4
[16] = tested on: MDA-MB-435
[17] = tested on: SK-OV-3
[18] = tested on: M14
[19] = tested on: CCRF-CEM
[20] = tested on: 786-0
[21] = tested on: SF-268
[22] = tested on: HOP-92
[23] = tested on: K562
[24] = tested on: A549
[25] = tested on: UACC-62
[26] = tested on: MCF7
[27] = tested on: OVCAR-8
[28] = tested on: MDA-N
[29] = tested on: T47D
[30] = tested on: SK-MEL-5
[31] = tested on: SK-MEL-2
[32] = tested on: TK-10
[33] = tested on: ACHN
[34] = tested on: HL-60
[35] = tested on: RXF 393
[36] = tested on: UACC-257
[37] = tested on: SF-539
[38] = tested on: Malme-3M
[39] = tested on: HCC 2998
[40] = tested on: Hs-578T
[41] = tested on: PC-3
[42] = tested on: NCI-H226
[43] = tested on: DU-145
[44] = tested on: OVCAR-4
[45] = tested on: SNB-75
[46] = tested on: A498
[47] = tested on: KM12
[48] = tested on: OVCAR-3
[49] = tested on: LOX IMVI
[50] = tested on: COLO 205
[51] = tested on: SK-MEL-28
[52] = tested on: HCT-15
[53] = tested on: HCT-116
[54] = tested on: NCI-H23
[55] = tested on: MDA-MB-231
[56] = tested on: SW-620
[57] = tested on: SF-295
[58] = tested on: HOP-62
[59] = tested on: RPMI-8226

Measured: GI50

CC(C)=CC(=O)c1[nH]c2ccccc2c1CC(=O)NCCc1c[nH]cn1
> 100 µM: [52]
inactive: [1] > 100 µM | [2] > 100 µM | [3] > 100 µM | [4] > 100 µM | [5] > 100 µM | [6] > 100 µM | [7] > 100 µM | [8] > 100 µM | [9] > 100 µM | [10] > 100 µM | [11] > 100 µM | [12] > 100 µM | [13] > 100 µM | [14] > 100 µM | [15] > 100 µM | [16] > 100 µM | [17] > 100 µM | [18] > 100 µM | [19] > 100 µM | [20] > 100 µM | [21] > 100 µM | [22] > 100 µM | [23] > 100 µM | [24] > 100 µM | [25] > 100 µM | [26] > 100 µM | [27] > 100 µM | [28] > 100 µM | [29] > 100 µM | [30] > 100 µM | [31] > 100 µM | [32] > 100 µM | [33] > 100 µM | [34] > 100 µM | [35] > 100 µM | [36] > 100 µM | [37] > 100 µM | [38] > 100 µM | [39] > 100 µM | [40] > 100 µM | [41] > 100 µM | [42] > 100 µM | [43] > 100 µM | [44] > 100 µM | [45] > 100 µM | [46] > 100 µM | [47] > 100 µM | [48] > 100 µM | [49] > 100 µM | [50] > 100 µM | [51] > 100 µM | [53] > 100 µM | [54] > 100 µM | [55] > 100 µM | [56] > 100 µM | [57] > 100 µM

CC1=CC(=O)/C(=C/NC(=S)NCc2ccccc2)C(=O)O1
> 100 µM: [52]
inactive: [1] > 100 µM | [2] > 100 µM | [3] > 100 µM | [4] > 100 µM | [5] > 100 µM | [6] > 100 µM | [7] > 100 µM | [8] > 100 µM | [9] > 100 µM | [10] > 100 µM | [11] > 100 µM | [12] > 100 µM | [13] > 100 µM | [14] > 100 µM | [15] 52.2 µM | [16] > 100 µM | [17] > 100 µM | [18] > 100 µM | [19] > 100 µM | [20] > 100 µM | [21] > 100 µM | [22] > 100 µM | [24] > 100 µM | [25] > 100 µM | [26] > 100 µM | [27] > 100 µM | [28] > 100 µM | [29] > 100 µM | [30] > 100 µM | [31] > 100 µM | [32] > 100 µM | [33] > 100 µM | [34] 75.3 µM | [35] > 100 µM | [36] > 100 µM | [37] > 100 µM | [38] > 100 µM | [39] > 100 µM | [40] > 100 µM | [41] > 100 µM | [42] > 100 µM | [43] > 100 µM | [58] > 100 µM | [44] > 100 µM | [45] 80 µM | [46] 43.9 µM | [47] > 100 µM | [48] > 100 µM | [49] > 100 µM | [50] > 100 µM | [51] > 100 µM | [53] > 100 µM | [54] > 100 µM | [55] > 100 µM | [56] > 100 µM | [57] > 100 µM

Nc1c(/C=C/c2cc3cc(C4=NCCN4)ccc3o2)[nH]c2cc(C3=NCCN3)ccc12
inactive: [1] 66.2 µM | [2] 33.2 µM | [3] 43.7 µM | [4] 40.6 µM | [5] > 100 µM | [6] 39.1 µM | [7] 76.2 µM | [8] 32.7 µM | [9] 34.3 µM | [10] 43.6 µM | [11] 38.3 µM | [12] 40.1 µM | [13] 45.9 µM | [14] 38.3 µM | [15] 28.9 µM | [16] 33.1 µM | [17] > 100 µM | [18] 38.5 µM | [20] 37.3 µM | [21] 46.7 µM | [22] 99.8 µM | [23] 41.3 µM | [24] 41.5 µM | [25] 38 µM | [26] 40.7 µM | [27] 38.9 µM | [28] 37.8 µM | [29] 46.5 µM | [30] 30.8 µM | [31] > 100 µM | [32] 31.6 µM | [33] 47.1 µM | [34] 29.6 µM | [35] 43 µM | [59] 39 µM | [36] 46.7 µM | [37] 40 µM | [39] 32.4 µM | [40] > 100 µM | [41] 34.6 µM | [42] > 100 µM | [43] 36.1 µM | [58] 34.2 µM | [44] 47.1 µM | [45] 63.5 µM | [46] > 100 µM | [47] 34.4 µM | [48] 35.6 µM | [49] 38.8 µM | [50] 41.3 µM | [51] 32 µM | [53] 29.4 µM | [54] 60.7 µM | [55] 34.1 µM | [56] 34.4 µM | [57] 34.3 µM
41.6 µM: [52]
